One block for each compound: values may come before it.
Legend:
recombinant CD81-LEL = molecular target: T1, recombinant CD81-LEL (Homo sapiens, UniProt P60033); experiment: Dual polarization interferometry (DPI) binding of ligands to immobilized recombinant CD81-LEL; details: for DPI Response (Radians), ligand added to CD81 protein: Table B and b111; for DPI Response (Radians), ligand added to CD81 protein / DPI Radians: ligand 500 μM in PBS, 2.5% DMSO; for DPI Radians: Table A
T1 construct: the large extracellular loop of CD81 (CD81-LEL); GST; His; Shoshana Levy Lab, Stanford (gift)
T1 sequence (P60033 113-201 limits assumed): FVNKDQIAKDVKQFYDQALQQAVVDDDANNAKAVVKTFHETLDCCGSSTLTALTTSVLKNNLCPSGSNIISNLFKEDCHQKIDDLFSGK
Protocol: DPI analyses were performed using an AnaLight 4D workstation (Farfield Group, Manchester UK). The recombinant CD81-LEL was immobilized onto a Thiol AnaChip using Sulfo-GMBS as a cross-linker in PBS running buffer. Non-specific sites were blocked with digested casein. TRIS was used to cap the cross-linker, blocking any additional amines from covalently binding to the cross-linker on the chip surface. Ligands were prepared as a 20 mM stock solutions in DMSO. Each ligand was diluted to a final concentration of 500 μM in PBS just prior to injection (final DMSO concentration was 2.5%). PBS and DMSO mixed in the same ratio were used as a blank. Data collection and analysis were performed using the AnaLight Resolver.
Six of the more interesting ligand candidates being considered for use in creating a ligand conjugate (three calculated to bind to Site 1 and three calculated to bind to Site 2) were further tested to confirm binding using a second experimental technique, dual polarization interferometry. The results, shown in FIG. 6, confirmed that all six ligands bound to the protein. The relative rank in strength of binding of the Site 1 and 2 ligands, as determined by DPI, were also similar to the ranking obtained by SPR or calculated by AutoDock for the majority of the ligands. […] One reason for this observed difference in the DPI response may relate to conformational changes in the protein that occur when the small molecules bind. The change in radians measured using DPI when a ligand binds to a protein is known to result from a combination of two effects: 1) the resulting increase in mass/volume when the ligand binds to the protein on the surface of the chip and 2) a conformational change in the protein induced by the binding of the ligand. Molecules binding in the deeper cavity would be expected to have more and stronger contacts with the protein than ligands sitting exposed to solvent in shallow cavities or surface binding sites. […]

[1] = molecular target: T2, recombinant CD81-LEL (GST tag) (Homo sapiens, UniProt P60033); experiment: Surface plasmon resonance (Biacore T200) binding of ligands to immobilized recombinant CD81-LEL; details: Table A; ligand 600 μM in PBS-0.05% Tween-80; CD81-LEL-GST on CM5 chip
T2 construct: the large extracellular loop of CD81 (CD81-LEL); gift of Dr. Shoshana Levy, Stanford University
T2 sequence (P60033 113-201 limits assumed): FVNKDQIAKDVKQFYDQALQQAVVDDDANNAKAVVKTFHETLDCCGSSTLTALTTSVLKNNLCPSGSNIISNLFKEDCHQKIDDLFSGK
Protocol: SPR analysis was performed using a Biacore T200 workstation (GE Healthcare, NJ, USA). A recombinant form of the CD81-LEL protein with a GST tag (generously provided by Dr. Shoshana Levy, Stanford University) was used to confirm, using an established experimental technique, the binding of several ligands to the protein. Briefly, 10 μM CD81-LEL-GST diluted into 10 mM Na-Acetate buffer pH 4.5 was immobilized for 15 min at a flow speed of 5 μl/min onto a CM5 sensor chip using amine-coupling (EDC-NHS). Approximately 20,000 RU of protein were immobilized on the chip. The ligands were prepared as 600 μM solutions in PBS-0.05% Tween-80 (the running buffer) and they were introduced to the protein using a pre-programmed 3 minute association and 1 minute dissociation interval.
The binding affinity of the most tightly bound ligand in the group selected for ligand conjugate design (Ligand 1) was estimated using data collected from a series of SPR binding experiments conducted at different ligand concentrations. To obtain the kinetic and affinity data needed to estimate the Kd, the original ligand was diluted serially with running buffer to produce seven different ligand concentrations: 1024 μM, […], 256 μM, 128 μM, 64 μM, 32 μM and 0 μM. Data were fitted using a monovalent binding model.
A total of 36 ligands were tested experimentally using surface Plasmon resonance (on a Biacore T200 instrument) to identify which of the molecules calculated to bind to Sites 1 and 2 on CD81 actually bind to a recombinant form of the protein (CD81-LEL). Twenty-six of the molecules provided a positive change in response units (RU) upon introduction to a chip containing the immobilized protein (Table A), indicating the ligands bound to the protein. The measured responses for the ligands that bound varied from 2.3 to 78.4 RU. Those ligands providing the largest responses tended to be molecules that were calculated to bind more deeply inside cavities in Site 1 (ligands 30930, 98026, 7436, 5069), Site 2 (ligands 127947, 38743) or Site 4 (ligands 78623, 16631).
Experimental analysis of ligand binding to recombinant CD81 LEL. Forty ligands calculated by AutoDock to bind to sites 1 and 2 on CD81-LEL were tested experimentally using surface Plasmon resonance as described in the Materials and Methods section. Ligand code numbers are those assigned by the National Cancer Institute. […] Because the binding experiments were performed by passing the same concentration of each ligand sequentially across the same protein coated chip using both techniques, the magnitude of the responses can be used to provide an approximate ranking of binding strength.

[2] = molecular target: T3, native CD81 on Raji cells (Homo sapiens, UniProt P60033); experiment: Competition assay: inhibition of FITC-labeled JS-81 anti-CD81 antibody binding to native CD81 on live Raji cells (flow cytometry); format: cell-based
T3 construct: endogenous in cells; host or cells: Raji (human B cell line)
T3 sequence (P60033 1-236): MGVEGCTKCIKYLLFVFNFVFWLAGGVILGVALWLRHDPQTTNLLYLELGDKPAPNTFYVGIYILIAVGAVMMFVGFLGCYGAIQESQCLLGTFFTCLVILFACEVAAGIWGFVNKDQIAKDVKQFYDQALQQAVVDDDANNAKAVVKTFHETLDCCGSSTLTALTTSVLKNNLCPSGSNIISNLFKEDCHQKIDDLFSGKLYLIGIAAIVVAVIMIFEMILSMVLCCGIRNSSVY
Excerpt: A subset of these ligands and some of those listed in the patent have been tested to identify those ligands that bind to the correct region of the CD81 protein and for binding to native CD81 on living cells (a Raji cell line). This assay tests three concentrations of the ligand to determine if the ligand is capable of inhibiting the binding of an antibody called JS-81. This antibody is known to bind to the region of the CD81 protein we have targeted. If the ligand decreases JS-81 binding as you increase the concentration of the ligand, it is 1) binding to native CD81 on the Raji cells and 2) it is binding to the correct region of the protein.
For antibody neutralization assay Raji cells were used, a human B cell line that expressed high amounts of CD81 on the surface (data not shown). Cells were grown in RPMI medium (10% FCS, 1% penicillin/streptomycin, 1% L-glutamine, 1% non-essential amino acids, 1% sodium pyruvate, pH 7.4, at 37° C. with 5% CO2). 2×10^5 cells were incubated with or without different concentrations (50 μM, 100 μM, 400 μM and 1 mM) of indicated inhibitor for 20 min at room temperature, subsequently 1 ul (16 ng/μl) of FITC-labeled anti CD81 antibody (BD Pharmingen, 551108) was added to the cells and incubated for 20 min (antibody titration was performed to obtain a working dilution range, data not shown). Cells were washed and analyzed by flow cytometry using fluorescence-activated cell sorting (FACS) (BD FACSCalibur, software: Cell Quest Pro). Mean Fluorescence Intensity MFI was calculated using Flowjo software (TreesStar, www.flowjo.com).

HCV E2 binding to CD81 = molecular target: T4, HCV E2 binding to CD81 (Homo sapiens, UniProt P60033); experiment: DPI assay of ligands blocking HCV E2 protein binding to CD81; details: Table D; E2 Protein alone gives 4.1402; reduced response = blocking
T4 sequence (P60033 113-201 limits assumed): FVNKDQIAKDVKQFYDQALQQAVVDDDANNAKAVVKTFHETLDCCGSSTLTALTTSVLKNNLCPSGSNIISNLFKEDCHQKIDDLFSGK
Protocol: A subset of the ligands identified to bind to CD81 have been tested using Dual Polarization Interferometry (DPI) to determine if the ligands themselves are effective in blocking E2 binding to CD81. The experiments are conducted by first immobilizing one of the proteins (HCV E2 or CD81) on the chip used to perform the assay. The other protein is then introduced to the chip and the amount of binding is measured. This protein is then washed off and the protein and one of the ligands are then introduced to the chip. If the ligand blocks/interferes with the binding of the two proteins, the DPI response (measured in Radians) is reduced compared to when the protein is added alone. After the measurement is made, the protein and ligand are washed off and the next combination of the protein and a different ligand are added to the chip and the DPI response is measured. Similar experiments can be performed in which the protein is mixed with two or more ligands to see if they have a greater effect when combined.
Experiments have been conducted with either CD81 or HCV E2 immobilized on the chip. Six ligands have been tested to date.

DPI Response (Radians), ligand added to CD81 protein (recombinant CD81-LEL): 0.5818 Radians
DPI Response (Radians), ligand added to CD81 protein (recombinant CD81-LEL; listed as benzyl salicylate): 0.58 Radians
Compound: O=C(OCc1ccccc1)c1ccccc1O [Benzyl salicylate, reference compound]

SPR Response Units [1]: 78.4 RU
Inhibition of JS-81 Binding (%) ([2]; 50 μM ligand): 0%
Inhibition of JS-81 Binding (%) ([2]; 100 μM ligand): 12%
Inhibition of JS-81 Binding (%) ([2]; 400 μM ligand): 11%
Compound: CC(C)(C)c1ccc(NS(=O)(=O)c2ccc(N)cc2)cc1 [Ligand 7436]

Compound: O=C(O)c1cc2cc(OCc3ccccc3)ccc2[nH]1 [Ligand 30930]
SPR Response Units [1]: 67.7 RU
DPI Binding Response (Radians), molecule added alone to CD81 (recombinant CD81-LEL; Table D, single molecule added to CD81): 1.102 Radians
DPI Binding Response (Radians), E2 Protein added to CD81 together with ligand(s) (HCV E2 binding to CD81): 2.5262 Radians
Inhibition of JS-81 Binding (%) ([2]; 50 μM ligand): 0%
Inhibition of JS-81 Binding (%) ([2]; 100 μM ligand): 0%
Inhibition of JS-81 Binding (%) ([2]; 400 μM ligand): 14%

DPI Radians (recombinant CD81-LEL): 0.1448 Radians
Compound: O=C(O)Cn1cnc2c(=S)nc[nH]c21 [Ligand 36914]

SPR Response Units [1]: 30.6 RU
DPI Response (Radians), ligand added to CD81 protein (recombinant CD81-LEL): 0.8593 Radians
Compound: O=C(O)CCC1(c2ccccc2)NC(=O)NC1=O (stereo not drawn) [Ligand 38743]

DPI Radians (recombinant CD81-LEL): 0.2700 Radians
Compound: O=C(O)c1ccccc1C(=O)Nc1ccccc1[N+](=O)[O-] [Ligand 41066]

SPR Response Units [1]: 10.6 RU
Compound: CC(C)CNC(=O)/C=C\C(=O)O [Ligand 55573]

SPR Response Units [1]: 58 RU
Compound: O=C(O)CCCCC1SCC2NC(=O)NC21 (stereo not drawn) [Ligand 63865]

SPR Response Units [1]: 12.1 RU
Compound: O=C(Nc1ccc(O)c(C(=O)O)c1)Oc1ccccc1 [Ligand 68971]

SPR Response Units [1]: 41.2 RU
Inhibition of JS-81 Binding (%) ([2]; 50 μM ligand): 0%
Inhibition of JS-81 Binding (%) ([2]; 100 μM ligand): 13%
Inhibition of JS-81 Binding (%) ([2]; 400 μM ligand): 15%
Compound: N=C(N)N/N=C/c1c(Cl)cccc1Cl [Ligand 68982]

SPR Response Units [1]: 14.1 RU
Compound: Nc1nc(O)c(CC(=O)O)s1 [Ligand 70980]
